Data taken from the NIST ThermoML archive (doi:10.1016/j.jct.2019.02.028).

Details: Gas, Burnett expansion method

[He] [helium]
Details	mass density [kg/m3]
323.66 K, 875.31 kPa	1.297
323.67 K, 386.6 kPa	0.5746
323.67 K, 1986.4 kPa	2.9278
323.67 K, 2996.7 kPa	4.3975
323.68 K, 581.96 kPa	0.8635
323.68 K, 1318.2 kPa	1.9481
323.68 K, 4542.5 kPa	6.6206
333.58 K, 398.41 kPa	0.5744
333.58 K, 901.91 kPa	1.2964
333.58 K, 1358 kPa	1.9472
333.58 K, 3086.7 kPa	4.3949
333.58 K, 4675.1 kPa	6.6128
333.59 K, 2046.3 kPa	2.926
333.62 K, 599.5 kPa	0.8631
343.5 K, 616.99 kPa	0.8628
343.5 K, 1397.8 kPa	1.9464
343.51 K, 928.6 kPa	1.2959
343.51 K, 3177 kPa	4.3922
343.51 K, 4808.1 kPa	6.6049
343.52 K, 410.1 kPa	0.5742
343.52 K, 2106 kPa	2.9243
353.39 K, 421.94 kPa	0.5741
353.39 K, 634.63 kPa	0.8624
353.39 K, 3267.2 kPa	4.3896
353.39 K, 4938.7 kPa	6.5971
353.4 K, 954.95 kPa	1.2953
353.4 K, 1437.5 kPa	1.9455
353.4 K, 2165.8 kPa	2.9225
363.2 K, 2225.1 kPa	2.9208
363.28 K, 1476.9 kPa	1.9446
363.28 K, 5072.4 kPa	6.5893
363.29 K, 433.46 kPa	0.5739
363.29 K, 433.47 kPa	0.5739
363.29 K, 652.06 kPa	0.862
363.29 K, 652.07 kPa	0.862
363.29 K, 981.18 kPa	1.2947
363.29 K, 2225 kPa	2.9208
363.29 K, 3356.7 kPa	4.387
